Reference: patent US8506950B2, “Degradable microcapsules” (ETH Zurich, priority 2008, dated 2013)
“And” between values parts separate entries of the source, which are not always exact repeats. Equal entries are not always repeated.

Molecular target: rLHR (Rattus norvegicus, UniProt P16235)
Assay: PCRE controlled luciferase expression in HEK293T transiently transfected with rLHR
Format: cell-based
Set-up: Full-length cDNAs encoding the LHRs of rat (r) and bovine (b) origin; expressed in transfected cells; host or cells: HEK293T, transient transfection with pLEN-rLHR
Conditions: 500 ng/ml bLH, 6 h post-induction, pLEN-rLHR + pCRE-Luc
Procedure: HEK293T cells were transiently transfected for rLHR and PCRE controlled luciferase expression. 24 hours after transfection the cells were transferred to a 96-well plate, cultured for 12 h and induced by the addition of 500 ng/ml bLH. The luciferase expression was measured 6 h post-induction. […] Luciferase expression was expressed as relative light units (RLU).
Functional expression of LHRs on the cell surface results in the stimulation of PKA and an increase of intracellular cAMP in response to bLH. It was evaluated whether the activated LHR-signaling may induce a PKA-responsive promoter. […] 24 hours post-transfection the cells were induced by bLH and the SEAP expression was determined over time. […] In comparing rLHR- and bLHR-expressing cells a 3-fold increase in maximal SEAP expression in response to bLH of the rLHR over the bLHR was detected. […]
The intracellular cAMP production of cells was quantified using the cAMP Fluorescence Polarization (FP) Biotrak Immunoassay System (GE Healthcare Bio-Sciences GmbH, Otelfingen, Switzerland, Cat No. RPN3595) according to the manufacturer's protocol. The expression of firefly luciferase was determined with the Tropix Luciferase Assay Kit (Applied Biosystems, Bedford, USA, Cat No. BC100L). […] Enhanced YFP-expression was detected by fluorescence microscopy (Leica Microsystems, Wetzlar, Germany)

rLHR, sequence (P16235 27-700): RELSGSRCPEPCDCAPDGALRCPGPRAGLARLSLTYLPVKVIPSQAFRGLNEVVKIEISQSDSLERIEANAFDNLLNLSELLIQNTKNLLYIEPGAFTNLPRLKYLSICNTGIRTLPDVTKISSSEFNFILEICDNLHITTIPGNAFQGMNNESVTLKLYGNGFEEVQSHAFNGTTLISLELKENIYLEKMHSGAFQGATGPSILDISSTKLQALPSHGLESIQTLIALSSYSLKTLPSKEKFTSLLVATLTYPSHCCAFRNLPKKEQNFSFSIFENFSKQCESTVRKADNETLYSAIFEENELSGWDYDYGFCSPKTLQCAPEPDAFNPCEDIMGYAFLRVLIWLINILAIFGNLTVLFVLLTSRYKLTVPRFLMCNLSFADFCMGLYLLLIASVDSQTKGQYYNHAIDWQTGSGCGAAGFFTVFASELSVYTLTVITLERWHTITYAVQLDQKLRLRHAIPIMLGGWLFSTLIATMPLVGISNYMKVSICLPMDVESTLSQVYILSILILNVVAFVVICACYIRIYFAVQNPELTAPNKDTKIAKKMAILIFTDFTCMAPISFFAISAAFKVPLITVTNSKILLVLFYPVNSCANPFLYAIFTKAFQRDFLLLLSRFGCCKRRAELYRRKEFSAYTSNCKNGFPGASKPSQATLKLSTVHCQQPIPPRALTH

Substance: bovine luteinizing hormone [bLH]
- increase in luciferase expression: 10 fold and 9.9±0.1 fold
